Assay results: patent US20230233569A1 (Revolution Medicines, Inc., priority 2020, published 2023)

What was measured:
[1] = system: Capan-1 (K-Ras G12V); assay: CellTiter-Glo cell viability assay, 5-day treatment; assay type: cell-based; details: Homo sapiens, CAPAN-1, 120 h, 5-day treatment; read-out: Capan-1 Cell Viability assay data (K-Ras G12V, IC50)
Summary of the method: (§1)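 Five-day compound treatment of plated cells; luminescent read after ~30 min at RT. Percent-of-DMSO data fit to a four-parameter logistic model.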

[2] = system: NCI-H358 (K-Ras G12C); assay: as above; assay type: cell-based; details: Homo sapiens, NCI-H358, 120 h, 5-day treatment; read-out: H358 Cell Viability assay data (K-Ras G12C, IC50)
Summary of the method: as §1

[3] = target: KRAS G12C (Homo sapiens, UniProt P01116+P62937, G12C); assay: Disruption of BRAF RBD interaction with Ras (FRET / MOA assay, with Cyclophilin A); assay type: biochemical; details: read-out: KRAS G12C FRET data, IC50
Summary of the method: (§2)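 Measured via TR-FRET after 3 h at 25 °C with compound (30 μM top, threefold serial steps, ten concentrations) plus K-Ras, Cyclophilin A and BRAF RBD, followed by 1.5 h with anti-His europium (10 nM) and anti-GST allophycocyanin (50 nM). Signal loss versus DMSO gave IC50.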

[4] = target: KRAS G12D (Homo sapiens, UniProt P01116+P62937, G12D); assay: as above; assay type: biochemical; details: read-out: KRAS G12D FRET data, IC50
Summary of the method: as §2

[5] = target: KRAS G12S (Homo sapiens, UniProt P01116+P62937, G12S); assay: as above; assay type: biochemical; details: read-out: KRAS G12S FRET data, IC50
Summary of the method: as §2

[6] = target: KRAS G12V (Homo sapiens, UniProt P01116+P62937, G12V); assay: as above; assay type: biochemical; details: KRAS G12V; read-out: KRAS G12V FRET data IC50
Summary of the method: as §2

[7] = target: KRAS G13C (Homo sapiens, UniProt P01116+P62937, G13C); assay: as above; assay type: biochemical; details: read-out: KRAS G13C FRET data, IC50
Summary of the method: as §2

[8] = target: KRAS G13D (Homo sapiens, UniProt P01116+P62937, G13D); assay: as above; assay type: biochemical; details: KRAS G13D; read-out: KRAS G13D FRET data IC50
Summary of the method: as §2

[9] = target: KRAS WT (Homo sapiens, UniProt P01116+P62937); assay: as above; assay type: biochemical; details: KRAS WT; read-out: KRAS WT FRET data IC50
Summary of the method: as §2

[10] = target: NRAS G12C (Homo sapiens, UniProt P01111+P62937, G12C); assay: as above; assay type: biochemical; details: NRAS G12C; read-out: NRAS G12C FRET data IC50
Chain of NRAS G12C (P01111 whole entry G12C): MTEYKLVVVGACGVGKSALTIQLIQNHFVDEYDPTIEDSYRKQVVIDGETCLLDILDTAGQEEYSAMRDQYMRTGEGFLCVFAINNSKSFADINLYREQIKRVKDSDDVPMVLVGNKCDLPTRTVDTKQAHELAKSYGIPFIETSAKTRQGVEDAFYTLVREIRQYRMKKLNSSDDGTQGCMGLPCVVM
Chain of NRAS G12C (P62937 whole entry): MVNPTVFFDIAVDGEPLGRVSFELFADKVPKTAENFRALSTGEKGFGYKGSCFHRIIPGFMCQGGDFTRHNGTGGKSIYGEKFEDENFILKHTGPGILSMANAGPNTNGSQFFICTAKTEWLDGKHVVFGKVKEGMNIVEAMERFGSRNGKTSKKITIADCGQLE

Chain of KRAS WT (P01116 1-169 isoform P01116-2 limits assumed): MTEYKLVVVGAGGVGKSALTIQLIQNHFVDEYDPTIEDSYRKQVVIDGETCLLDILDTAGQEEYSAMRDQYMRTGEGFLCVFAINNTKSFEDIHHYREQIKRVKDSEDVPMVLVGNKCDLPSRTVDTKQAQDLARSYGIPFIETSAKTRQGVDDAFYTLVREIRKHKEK
Chain of KRAS WT (P62937 whole entry): as the sequence (P62937 whole entry) above
Chain of KRAS G13C (P01116 1-169 isoform P01116-2 G13C): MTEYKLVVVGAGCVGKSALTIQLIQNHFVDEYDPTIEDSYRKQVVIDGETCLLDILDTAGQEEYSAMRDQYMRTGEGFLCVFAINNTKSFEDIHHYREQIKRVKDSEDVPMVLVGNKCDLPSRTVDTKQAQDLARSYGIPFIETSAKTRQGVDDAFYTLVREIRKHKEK
Chain of KRAS G13C (P62937 whole entry): as the sequence (P62937 whole entry) above
Chain of KRAS G13D (P01116 1-169 isoform P01116-2 G13D limits assumed): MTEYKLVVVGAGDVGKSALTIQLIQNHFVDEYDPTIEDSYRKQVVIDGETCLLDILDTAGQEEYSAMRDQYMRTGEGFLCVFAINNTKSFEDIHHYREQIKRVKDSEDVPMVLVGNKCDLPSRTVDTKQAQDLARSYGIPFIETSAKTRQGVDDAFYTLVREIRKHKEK
Chain of KRAS G13D (P62937 whole entry): as the sequence (P62937 whole entry) above
Chain of KRAS G12D (P01116 1-169 isoform P01116-2 G12D limits assumed): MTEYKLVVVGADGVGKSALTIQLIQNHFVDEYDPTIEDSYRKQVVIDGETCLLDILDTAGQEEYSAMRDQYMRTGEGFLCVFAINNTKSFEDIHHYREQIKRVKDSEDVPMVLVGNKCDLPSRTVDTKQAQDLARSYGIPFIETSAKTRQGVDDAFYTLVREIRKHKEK
Chain of KRAS G12D (P62937 whole entry): as the sequence (P62937 whole entry) above
Chain of KRAS G12C (P01116 1-169 isoform P01116-2 G12C): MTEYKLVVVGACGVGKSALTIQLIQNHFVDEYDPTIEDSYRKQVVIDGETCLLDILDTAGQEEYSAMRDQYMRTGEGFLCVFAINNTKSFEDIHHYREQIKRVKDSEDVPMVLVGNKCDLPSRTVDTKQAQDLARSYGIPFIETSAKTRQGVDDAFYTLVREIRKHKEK
Chain of KRAS G12C (P62937 whole entry): as the sequence (P62937 whole entry) above
Chain of KRAS G12V (P01116 1-169 isoform P01116-2 G12V limits assumed): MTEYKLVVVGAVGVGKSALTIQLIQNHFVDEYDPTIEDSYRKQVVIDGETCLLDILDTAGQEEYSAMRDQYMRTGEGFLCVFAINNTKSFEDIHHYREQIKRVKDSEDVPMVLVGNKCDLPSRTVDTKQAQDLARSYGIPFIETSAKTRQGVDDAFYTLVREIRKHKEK
Chain of KRAS G12V (P62937 whole entry): as the sequence (P62937 whole entry) above
Chain of KRAS G12S (P01116 1-169 isoform P01116-2 G12S limits assumed): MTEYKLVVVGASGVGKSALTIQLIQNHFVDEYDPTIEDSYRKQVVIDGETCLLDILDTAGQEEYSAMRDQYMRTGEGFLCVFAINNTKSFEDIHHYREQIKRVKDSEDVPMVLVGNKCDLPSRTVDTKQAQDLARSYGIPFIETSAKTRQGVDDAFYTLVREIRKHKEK
Chain of KRAS G12S (P62937 whole entry): as the sequence (P62937 whole entry) above

IC50 [2] [nM]	IC50 [3] [nM]	IC50 [4] [nM]	IC50 [5] [nM]	IC50 [6] [nM]	IC50 [7] [nM]	IC50 [8] [nM]	IC50 [9] [nM]	IC50 [10] [nM]	SMILES	IC50 [1] [nM]
10 to 100	100 to 1000	1000 to 10000	100 to 1000	100 to 1000	100 to 1000	100 to 1000	100 to 1000	100 to 1000	CCN(C(=O)N(C)[C@H](C(=O)N[C@H]1Cc2nc(cs2)-c2ccc3c(c2)c(c(-c2cccnc2[C@H](C)OC)n3CC)CC(C)(C)COC(=O)[C@@H]2CCCN(N2)C1=O)C(C)C)C1CC1 [Example A352]	100 to 1000
10 to 100	10 to 100	100 to 1000	100 to 1000	100 to 1000	100 to 1000	100 to 1000	100 to 1000	10 to 100	CCn1c(-c2cccnc2[C@H](C)OC)c2c3cc(ccc31)-c1csc(n1)C[C@H](NC(=O)[C@H](C(C)C)N(C)C(=O)N(C)C1CC1)C(=O)N1CCC[C@H](N1)C(=O)OCC(C)(C)C2 [Example A353]	10 to 100
100 to 1000	10 to 100	10 to 100	10 to 100	10 to 100	10 to 100	10 to 100	10 to 100	10 to 100	CCn1c(-c2cccnc2[C@H](C)OC)c2c3cc(ccc31)-c1cc(O)cc(c1)C[C@H](NC(=O)[C@H](C(C)C)N(C)C(=O)[C@H]1CCN(C(=O)[C@H]3CCCN3)C1)C(=O)N1CCC[C@H](N1)C(=O)OCC(C)(C)C2 [Example A378]	1000 to 10000
100 to 1000	10 to 100	10 to 100	10 to 100	10 to 100	10 to 100	10 to 100	10 to 100	10 to 100	CCn1c(-c2cccnc2[C@H](C)OC)c2c3cc(ccc31)-c1cc(O)cc(c1)C[C@H](NC(=O)[C@H](C(C)C)N(C)C(=O)[C@H]1CCN(C(=O)[C@@H]3CCCN3C)C1)C(=O)N1CCC[C@H](N1)C(=O)OCC(C)(C)C2 [Example A385]	100 to 1000
100 to 1000	10 to 100	10 to 100	10 to 100	100 to 1000	10 to 100	10 to 100	10 to 100	10 to 100	CCn1c(-c2cccnc2[C@H](C)OC)c2c3cc(ccc31)-c1cc(O)cc(c1)C[C@H](NC(=O)[C@H](C(C)C)N(C)C(=O)[C@H]1CC[C@@H](CN(C)C)O1)C(=O)N1CCC[C@H](N1)C(=O)OCC(C)(C)C2 [Example A397]	100 to 1000
100 to 1000	10 to 100	100 to 1000	10 to 100	10 to 100	10 to 100	10 to 100	10 to 100	10 to 100	CCn1c(-c2cccnc2[C@H](C)OC)c2c3cc(ccc31)-c1cc(O)cc(c1)C[C@H](NC(=O)[C@H](C(C)C)N(C)C(=O)[C@@H]1OC[C@@H]3CCC[C@@H]31)C(=O)N1CCC[C@H](N1)C(=O)OCC(C)(C)C2 [Example A407]	100 to 1000
10 to 100	10 to 100	1000 to 10000	100 to 1000	100 to 1000	100 to 1000	100 to 1000	100 to 1000	10 to 100	CCn1c(-c2cccnc2[C@H](C)OC)c2c3cc(ccc31)-c1csc(n1)C[C@H](NC(=O)[C@H](C(C)C)N(C)C(=O)N1CC(C#N)(N(C)C)C1)C(=O)N1CCC[C@H](N1)C(=O)OCC(C)(C)C2 [Example A452]	10 to 100

More lines, now with the values behind:

SMILES	IC50 [2] [nM]	IC50 [3] [nM]	IC50 [4] [nM]	IC50 [5] [nM]	IC50 [6] [nM]	IC50 [7] [nM]	IC50 [8] [nM]	IC50 [9] [nM]	IC50 [10] [nM]	IC50 [1] [nM]
CCn1c(-c2cccnc2[C@H](C)OC)c2c3cc(ccc31)-c1csc(n1)C[C@H](NC(=O)[C@H](C(C)C)N(C)C(=O)N1CC(N3CCN(C)CC3)C1)C(=O)N1CCC[C@H](N1)C(=O)OCC(C)(C)C2 [Example A288]	10 to 100	10 to 100	100 to 1000	100 to 1000	100 to 1000	100 to 1000	100 to 1000	100 to 1000	10 to 100	10 to 100
CCn1c(-c2cccnc2[C@H](C)OC)c2c3cc(ccc31)-c1csc(n1)C[C@H](NC(=O)[C@H](C(C)C)N(C)C(=O)N1CCOC3(CN(C)C3)C1)C(=O)N1CCC[C@H](N1)C(=O)OCC(C)(C)C2 [Example A294]	10 to 100	100 to 1000	100 to 1000	100 to 1000	100 to 1000	100 to 1000	100 to 1000	100 to 1000	100 to 1000	100 to 1000
CCn1c(-c2cccnc2[C@H](C)OC)c2c3cc(ccc31)-c1csc(n1)C[C@H](NC(=O)[C@H](C(C)C)N(C)C(=O)N1CCN(C)C3(CC3)C1)C(=O)N1CCC[C@H](N1)C(=O)OCC(C)(C)C2 [Example A311]	10 to 100	100 to 1000	100 to 1000	100 to 1000	100 to 1000	100 to 1000	100 to 1000	100 to 1000	100 to 1000	100 to 1000
CCn1c(-c2cccnc2[C@H](C)OC)c2c3cc(ccc31)-c1csc(n1)C[C@H](NC(=O)[C@H](C(C)C)N(C)C(=O)N1C[C@H]3CN(C)C[C@H]3C1)C(=O)N1CCC[C@H](N1)C(=O)OCC(C)(C)C2 [Example A313]	10 to 100	100 to 1000	100 to 1000	100 to 1000	100 to 1000	100 to 1000	100 to 1000	100 to 1000	10 to 100	10 to 100
CCN(CC)C1CN(C(=O)N(C)[C@H](C(=O)N[C@H]2Cc3nc(cs3)-c3ccc4c(c3)c(c(-c3cccnc3[C@H](C)OC)n4CC)CC(C)(C)COC(=O)[C@@H]3CCCN(N3)C2=O)C(C)C)C1 [Example A319]	10 to 100	100 to 1000	1000 to 10000	100 to 1000	100 to 1000	100 to 1000	100 to 1000	100 to 1000	10 to 100	10 to 100
CCn1c(-c2cccnc2[C@H](C)OC)c2c3cc(ccc31)-c1csc(n1)C[C@H](NC(=O)[C@H](C(C)C)N(C)C(=O)N1CC(N3CCCC3)C1)C(=O)N1CCC[C@H](N1)C(=O)OCC(C)(C)C2 [Example A329]	10 to 100	100 to 1000	1000 to 10000	100 to 1000	100 to 1000	100 to 1000	100 to 1000	100 to 1000	100 to 1000	10 to 100
CCn1c(-c2cccnc2[C@H](C)OC)c2c3cc(ccc31)-c1csc(n1)C[C@H](NC(=O)[C@H](C(C)C)N(C)C(=O)N(C)CC(C)C)C(=O)N1CCC[C@H](N1)C(=O)OCC(C)(C)C2 [Example A332]	100 to 1000	100 to 1000	100 to 1000	100 to 1000	100 to 1000	100 to 1000	100 to 1000	100 to 1000	100 to 1000	100 to 1000
CCN(C(=O)N(C)[C@H](C(=O)N[C@H]1Cc2nc(cs2)-c2ccc3c(c2)c(c(-c2cccnc2[C@H](C)OC)n3CC)CC(C)(C)COC(=O)[C@@H]2CCCN(N2)C1=O)C(C)C)C(C)C [Example A333]	10 to 100	10 to 100	100 to 1000	100 to 1000	100 to 1000	100 to 1000	100 to 1000	10 to 100	10 to 100	100 to 1000
CCn1c(-c2cccnc2[C@H](C)OC)c2c3cc(ccc31)-c1csc(n1)C[C@H](NC(=O)[C@@H](OC(=O)N1CC(N(C)C)C1)C(C)C)C(=O)N1CCC[C@H](N1)C(=O)OCC(C)(C)C2 [Example A339]	100 to 1000	100 to 1000	1000 to 10000	1000 to 10000	1000 to 10000	1000 to 10000	1000 to 10000	100 to 1000	100 to 1000	1000 to 10000
CCn1c(-c2cccnc2[C@H](C)OC)c2c3cc(ccc31)-c1csc(n1)C[C@H](NC(=O)[C@H](C(C)C)N(C)C(=O)N(C)C(C)C)C(=O)N1CCC[C@H](N1)C(=O)OCC(C)(C)C2 [Example A350]	10 to 100	10 to 100	100 to 1000	100 to 1000	100 to 1000	100 to 1000	100 to 1000	100 to 1000	10 to 100	100 to 1000
